Experimental data taken from patent US9493466B2, “Treatment of cancer with TOR kinase inhibitors” (Signal Pharmaceuticals, LLC, priority 2011, dated 2016).

Experiments:
Assay in all cases: Growth inhibition assay for NHL lines
Assay type in all cases: cell-based
KG-1 = conditions: KG-1, Leukemia M-AML, 96 hours, n ≧ 3
Procedure: (§1) Growth Inhibition Assay for HCC and NHL Lines. The seeding density for each cell line was optimized to ensure assay linearity in 384-well plates.
(§2) Compound 1 was dissolved in dimethyl sulfoxide (DMSO) to prepare a 10 mM stock solution. A serial titration was performed to produce a working concentration range of […] to 10 mM. Aliquots to produce final concentrations of 1.5 nM to 10 μM were spotted via an acoustic dispenser (EDC ATS-100) into an empty 384-well plate. Compound 1 was spotted in a 10-point serial dilution fashion (3-fold dilution) in duplicate within the plate. The DMSO concentration was kept constant for a final assay concentration of 0.1% DMSO. Plates were replicated for use with different cell lines and testing periods. After compound plate replication, all plates were sealed (Agilent ThermoLoc) and stored at −20° C. for up to 1 month. […] When ready for testing, plates were removed from the freezer, thawed, and unsealed just prior to the addition of the test cells. Prior to testing, cells were grown and expanded in culture flasks to provide sufficient amounts of starting material. Cells were then diluted to the appropriate densities and added directly to the compound-spotted 384-well plates. Cells were allowed to grow for 96 hours at 37° C./5% CO2. At the time when compound was added (t0), initial cell number was assessed via a viability assay (Cell Titer-Glo) by quantifying the level of luminescence generated by ATP present in viable cells. After 96 hours, cell viability of compound-treated cells was assessed via Cell Titer-Glo and luminescence measurement. Cell lines were assayed for growth inhibition by Compound 1 in at least 3 independent tests. A control cell line (the lung tumor cell line, A549) was included in each of the assays. The compound response against this control cell line was monitored closely to enable comparison of the data generated through the assay period. All data were normalized and presented as a percentage of the DMSO-treated cells. Results were then expressed as a GI50 value. The GI50 value corrects for the cell count at time zero. In addition, the IC50 value of Compound 1 for each cell line was calculated.

OCI-LY-10 = conditions: OCI-LY-10, NHL DLBCL, 96 hours, n ≧ 3
Procedure: as §1, §2

SU-DHL-8 = conditions: SU-DHL-8, NHL DLBCL, 96 hours, n ≧ 3
Procedure: as §1, §2

DOHH-2 = conditions: DOHH-2, NHL FL, 96 hours, n ≧ 3
Procedure: as §1, §2

NU-DHL-1 = conditions: NU-DHL-1, NHL DLBCL, 96 hours, n ≧ 3
Procedure: as §1, §2

WSU-NHL = conditions: NHL FL, 96 hours, n ≧ 3
Procedure: as §1, §2

DB = conditions: NHL DLBCL, 96 hours, n ≧ 3
Procedure: as §1, §2

WSU-DLCL2 = conditions: WSU-DLCL2, NHL DLBCL, 96 hours, n ≧ 3
Procedure: as §1, §2

WSU-FSCCL = conditions: NHL FL, 96 hours, n ≧ 3
Procedure: as §1, §2

SC-1 = conditions: SC-1, NHL FL, 96 hours, n ≧ 3
Procedure: as §1, §2

RC-K8 = conditions: RC-K8, NHL DLBCL, 96 hours, n ≧ 3
Procedure: as §1, §2

KARPAS-1106P = conditions: NHL DLBCL, 96 hours, n ≧ 3
Procedure: as §1, §2

OCI-LY-19 = conditions: OCI-LY-19, NHL DLBCL, 96 hours, n ≧ 3
Procedure: as §1, §2

SU-DHL-10 = conditions: SU-DHL-10, NHL DLBCL, 96 hours, n ≧ 3
Procedure: as §1, §2

HL-60 = conditions: HL-60, Leukemia M-AML, 96 hours, n ≧ 3
Procedure: as §1, §2

KARPAS-299 = conditions: KARPAS-299, ALCL T-cell, 96 hours, n ≧ 3
Procedure: as §1, §2

KARPAS-422 = conditions: KARPAS-422, NHL DLBCL, 96 hours, n ≧ 3
Procedure: as §1, §2

HT = conditions: NHL DLBCL, 96 hours, n ≧ 3
Procedure: as §1, §2

SU-DHL-1 = conditions: SU-DHL-1, ALCL T-cell, 96 hours, n ≧ 3
Procedure: as §1, §2

JEKO-1 = conditions: JEKO-1, NHL MCL, 96 hours, n ≧ 3
Procedure: as §1, §2

Granta-519 = conditions: Granta-519, NHL MCL, 96 hours, n ≧ 3
Procedure: as §1, §2

Toledo = conditions: NHL DLBCL, 96 hours, n ≧ 3
Procedure: as §1, §2

OCI-LY-7 = conditions: OCI-LY-7, NHL DLBCL, 96 hours, n ≧ 3
Procedure: as §1, §2

REC-1 = conditions: REC-1, NHL MCL, 96 hours, n ≧ 3
Procedure: as §1, §2

For CO[C@H]1CC[C@H](N2C(=O)CNc3ncc(-c4ccc(C(C)(C)O)nc4)nc32)CC1 [Compound 1, 7-(6-(2-hydroxypropan-2-yl)pyridin-3-yl)-1-((1r,4r)-4-methoxycyclohexyl)-3,4-dihydropyrazino-[2,3-b]pyrazin-2(1H)-one], the GI50 (KG-1) was 60 ± 20 nM, the IC50 (KG-1) was 370 ± 40 nM and the GI50 (OCI-LY-10) was 140 ± 40 nM. It also gave an IC50 (OCI-LY-10) of 190 ± 40 nM, a GI50 (SU-DHL-8) of 80 ± 40 nM and an IC50 (SU-DHL-8) of 100 ± 40 nM. For the same compound, the GI50 (DOHH-2) was 130 ± 20 nM, the IC50 (DOHH-2) was 160 ± 30 nM and the GI50 (NU-DHL-1) was 80 ± 30 nM. For the same compound, the IC50 (NU-DHL-1) was 110 ± 50 nM, the GI50 (WSU-NHL) was 50 nM and the IC50 (WSU-NHL) was 70 nM. The GI50 (DB) was 150 ± 100 nM, the IC50 (DB) was 170 ± 90 nM and the GI50 (WSU-DLCL2) was 90 ± 20 nM. The IC50 (WSU-DLCL2) was 90 ± 20 nM, the GI50 (WSU-FSCCL) was 160 ± 40 nM and the IC50 (WSU-FSCCL) was 190 ± 40 nM. It also gave a GI50 (SC-1) of 180 ± 10 nM, an IC50 (SC-1) of 200 ± 10 nM and a GI50 (RC-K8) of 80 ± 10 nM. The IC50 (RC-K8) was 150 ± 30 nM, the GI50 (KARPAS-1106P) was 70 ± 30 nM and the IC50 (KARPAS-1106P) was 70 ± 30 nM. For the same compound, the GI50 (OCI-LY-19) was 220 ± 60 nM, the IC50 (OCI-LY-19) was 350 ± 80 nM and the GI50 (SU-DHL-10) was 200 ± 20 nM. It also gave an IC50 (SU-DHL-10) of 200 ± 30 nM, a GI50 (HL-60) of 240 ± 60 nM and an IC50 (HL-60) of 380 ± 130 nM. It also gave a GI50 (KARPAS-299) of 330 ± 120 nM, an IC50 (KARPAS-299) of 470 ± 220 nM and a GI50 (KARPAS-422) of 20 ± 10 nM. For the same compound, the IC50 (KARPAS-422) was 20 ± 10 nM, the GI50 (HT) was 110 ± 40 nM and the IC50 (HT) was 170 ± 50 nM. For the same compound, the GI50 (SU-DHL-1) was 320 ± 20 nM, the IC50 (SU-DHL-1) was 390 ± 30 nM and the GI50 (JEKO-1) was 70 ± 40 nM. It also gave an IC50 (JEKO-1) of 100 ± 50 nM, a GI50 (Granta-519) of 380 ± 80 nM and an IC50 (Granta-519) of 960 ± 100 nM. It also gave a GI50 (Toledo) of 70 ± 20 nM, an IC50 (Toledo) of 440 ± 20 nM and a GI50 (OCI-LY-7) of 190 ± 30 nM. The IC50 (OCI-LY-7) was 250 ± 30 nM, the GI50 (REC-1) was 200 ± 40 nM and the IC50 (REC-1) was 260 ± 50 nM.
